{"source": "patent EP0431799A2", "about": "“Use of nucleoside derivatives as cytotoxic agents” (THE WELLCOME FOUNDATION LIMITED, priority 1989, dated 1991)", "test_system": "P388 tumor cells", "parameters": "species or system Male CD2-F₁ mice", "conditions": "mouse, in vivo, po", "excerpt": "The tests employed for evaluating the antitumour activity of compounds of the present invention are essentially those used in the Tumor Panel of the Developmental Therapeutics Program, Divison of Cancer Treatment National Cancer Institute, A Goldin, et al., Methods in Cancer Research, Vol. XVI, p. 165, Academic Press (1979). Some modifications in dose level and schedule have been made to increase the testing efficiency.\nMale CD2-F₁ mice, weighing 20 ± 3 g, were used for this test. Control and test animals were injected intraperitioneally with a suspension of ∼10⁶ viable P388 tumor cells on day 0. In each test, several dose levels which bracketed the LD₂₀ of the compound were evaluated; each dose level group contained six animals. The test compounds were prepared either in physiologic saline containing 0.05% Tween 80 or distilled water containing 5% dextrose and were administered (a) orally, (b) intravenously or (c) intraperitoneally according to the indicated schedule relative to the day of tumour implant. Doses were on a mg/kg basis according to individual animals' body weights. The day of death for each animal was recorded, the median identified for each group and the percent increase in life span (%ILS) was calculated from the ratios of median survival time for treated to control groups. The criterion for activity is % ILS greater than or equal to 20%."}
{"smiles": "Nc1ncnc2c1ncn2[C@@H]1CC[C@@H](O)[C@H]1O", "note": "(racemic) [(±)-(1R*,2S*,3R*)-3-(6-amino-9H-purin-9-yl)-1,2-cyclopentanediol]", "values": [{"measurement": "Toxic at:", "value": 35, "unit": "mg/kg"}]}
